In US7045343B2, “Sterilization indicator test packs” (3M Innovative Properties Company, priority 1998, dated 2006):

Key:
[1] = tested on: Bacillus stearothermophilus spores; assay: Spore outgrowth (color change) of indicators after prevacuum steam sterilization; type: cell-based; conditions: 4-pulse prevacuum steam 121° C.
Procedure, shortened: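 Bacillus stearothermophilus ATCC 7953 spores were cleaned, mixed into a heated sterilant-resistant coating chemical solution and pipetted onto paper strips at about 1×10^6 spores per strip. The strips were dried and placed in indicators, then exposed to a 4-pulse prevacuum steam cycle at 121° C. After exposure the media ampoule was crushed, and growth was judged visually as a purple-to-yellow color change after 168 hours at 60° C.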

[2] = tested on: Bacillus stearothermophilus spores; assay: Spore outgrowth (color change) of indicators after hydrogen peroxide plasma sterilization; type: cell-based; conditions: 1–22 min diffusion
Description: (§1) Sterilization indicators for Examples 6–9 were prepared as described above with the exception that closure member 22 of the sterilization indicator was constructed of TYVEK™ high-density polyethylene fiber material, commercially available from E.I. du Pont de Nemours and Co., Wilmington, Del.
(§2) Sterilization indicators were made as described above with spores that had been coated with each of the chemicals and concentrations listed in Table 6. The indicators were placed in instrument trays and exposed to a hydrogen peroxide plasma sterilization procedure at 45–55° C. in a STERRAD™ 100SI GMP Sterilizer, obtained from Advanced Sterilization Products Co., Irvine, Calif. During the sterilization procedure a vacuum was drawn in the sterilization chamber for 5–6 minutes until the pressure was reduced to 300 mTorr. A 1.8 ml aliquot of an aqueous solution of 58–60% hydrogen peroxide was then injected into the sterilization chamber over a period of about 6 minutes, yielding an empty chamber concentration of […] hydrogen peroxide, and hydrogen peroxide vapor was allowed to diffuse throughout the chamber for 1–22 minutes at 6–10 Torr. A vacuum was then drawn, reducing the pressure to 500 mTorr and removing all detectable hydrogen peroxide vapor from the chamber.
(§3) After exposure to the sterilization procedure, the indicators were removed from the sterilizer and the inner containers containing the enzyme substrate and nutrient medium were crushed. The indicators were then incubated at 60° C. and examined for fluorescence every hour for 5 hours using a 3M™ ATTEST™ Model 190 Rapid Autoreader, commercially available from 3M Company, St. Paul, Minn. Additionally, spore growth, as indicated by a color change from purple to yellow, was determined visually after 168 hours of incubation.
(§4) The number of growth positive indicators detected after 168 hours of incubation is recorded in Table 6.
as §2, with “7.” for “6.”
as §2, with “8.” for “6.”, “chamber. […]” for “chamber.”

[3] = tested on: enzyme associated with Bacillus stearothermophilus spores; assay: Rapid enzyme fluorescence readout of dual rapid readout indicators after prevacuum steam sterilization; type: biochemical; conditions: 4-pulse prevacuum steam 121° C.
Procedure, shortened: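 Bacillus stearothermophilus ATCC 7953 spores were coated with a sterilant-resistant chemical solution and pipetted onto paper strips at about 1×10^6 spores per strip. Each strip sat in a dual rapid readout indicator beside a crushable inner container of nutrient medium holding 4-methylumbelliferyl-alpha-D-glucoside at pH 7.6. Indicators went through a 4-pulse prevacuum steam cycle at 121° C, were activated, incubated at 60° C, and read for fluorescence on a 3M ATTEST Model 190 Rapid Autoreader.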

[4] = tested on: enzyme associated with Bacillus stearothermophilus spores; assay: Rapid enzyme fluorescence readout of indicators after hydrogen peroxide plasma sterilization; type: biochemical; conditions: for FLUORESCENCE - PERCENT POSITIVE 1 HR / FLUORESCENCE - PERCENT POSITIVE 2 HR / FLUORESCENCE - PERCENT POSITIVE 3 HR / FLUORESCENCE - PERCENT POSITIVE 4 HR / FLUORESCENCE - PERCENT POSITIVE 5 HR: 1–22 min diffusion
Description: as §1, §2, §3, §4
as §2, with “7.” for “6.”
as §2, with “8.” for “6.”, “chamber. […]” for “chamber.”

[5] = Example 4, 50 mg/ml coating, 7–18 min
[6] = Example 4, 100 mg/ml coating, 7–18 min
[7] = Example 5, 50 mg/ml coating, 7–13 min
[8] = Example 5, 100 mg/ml coating, 7–13 min

Substance | NO. GROWTH POSITIVE 168 HR [1, 5] | NO. GROWTH POSITIVE 168 HR [1, 6] | NO. GROWTH POSITIVE 168 HR ([2]; Example 7, 50 mg/ml coating) | FLUORESCENCE - PERCENT POSITIVE 1 HR [3, 5] | FLUORESCENCE - PERCENT POSITIVE 2 HR [3, 5] | FLUORESCENCE - PERCENT POSITIVE 3 HR [3, 5] | FLUORESCENCE - PERCENT POSITIVE 4 HR [3, 5] | FLUORESCENCE - PERCENT POSITIVE 1 HR [3, 6] | FLUORESCENCE - PERCENT POSITIVE 2 HR [3, 6] | FLUORESCENCE - PERCENT POSITIVE 3 HR [3, 6] | FLUORESCENCE - PERCENT POSITIVE 4 HR [3, 6] | FLUORESCENCE - PERCENT POSITIVE 1 HR ([4]; Example 7, 50 mg/ml coating) | FLUORESCENCE - PERCENT POSITIVE 2 HR ([4]; Example 7, 50 mg/ml coating) | FLUORESCENCE - PERCENT POSITIVE 3 HR ([4]; Example 7, 50 mg/ml coating) | FLUORESCENCE - PERCENT POSITIVE 4 HR ([4]; Example 7, 50 mg/ml coating) | FLUORESCENCE - PERCENT POSITIVE 5 HR ([4]; Example 7, 50 mg/ml coating) | further results
Hexaglyceryl Polyricinolate | 23 | 31 | 12 | 0% | 13.0% | 52.2% | 56.5% | 9.7% | 19.4% | 32.3% | 45.2% | 83.3% | 91.7% | 91.7% | 91.7% | 91.7% | 
Decaglyceryl Pentaoleate | 16 | 24 |  | 0% | 0% | 18.8% | 31.3% | 12.5% | 25.0% | 37.5% | 45.8% |  |  |  |  |  | NO. GROWTH POSITIVE 168 HR ([2]; Example 6, 50 mg/ml coating): 17; accuracy of sterilization indicators compared to indicators made with untreated spores ([4]; 1–3 hours after exposure): improved; FLUORESCENCE - PERCENT POSITIVE 1 HR ([4]; Example 6, 50 mg/ml coating): 82.4%; FLUORESCENCE - PERCENT POSITIVE 2 HR ([4]; Example 6, 50 mg/ml coating): 94.1%; FLUORESCENCE - PERCENT POSITIVE 3 HR ([4]; Example 6, 50 mg/ml coating): 100%; FLUORESCENCE - PERCENT POSITIVE 4 HR ([4]; Example 6, 50 mg/ml coating): 100%; FLUORESCENCE - PERCENT POSITIVE 5 HR ([4]; Example 6, 50 mg/ml coating): 100%
polyoxyethylene (20) sorbitan monostearate [POE(20) Sorbitan Monostearate] |  |  | 6 |  |  |  |  |  |  |  |  | 100% | 100% | 100% | 100% | 100% | NO. GROWTH POSITIVE 168 HR [1, 7]: 5; NO. GROWTH POSITIVE 168 HR [1, 8]: 2; NO. GROWTH POSITIVE 168 HR ([2]; Example 7, 100 mg/ml coating): 8; FLUORESCENCE - PERCENT POSITIVE 1 HR [3, 7]: 0%; FLUORESCENCE - PERCENT POSITIVE 2 HR [3, 7]: 0%; FLUORESCENCE - PERCENT POSITIVE 3 HR [3, 7]: 0%; FLUORESCENCE - PERCENT POSITIVE 4 HR [3, 7]: 0%; FLUORESCENCE - PERCENT POSITIVE 1 HR [3, 8]: 0%; FLUORESCENCE - PERCENT POSITIVE 2 HR [3, 8]: 0%; FLUORESCENCE - PERCENT POSITIVE 3 HR [3, 8]: 0%; FLUORESCENCE - PERCENT POSITIVE 4 HR [3, 8]: 0%; accuracy of sterilization indicators compared to indicators made with untreated spores ([4]; 2–3 hours after exposure): improved; FLUORESCENCE - PERCENT POSITIVE 1 HR ([4]; Example 7, 100 mg/ml coating): 50%; FLUORESCENCE - PERCENT POSITIVE 2 HR ([4]; Example 7, 100 mg/ml coating): 50%; FLUORESCENCE - PERCENT POSITIVE 3 HR ([4]; Example 7, 100 mg/ml coating): 62.5%; FLUORESCENCE - PERCENT POSITIVE 4 HR ([4]; Example 7, 100 mg/ml coating): 75%; FLUORESCENCE - PERCENT POSITIVE 5 HR ([4]; Example 7, 100 mg/ml coating): 75%
